In PubChem BioAssay AID248 (DTP/NCI, 2004):
Several values for one entry are separate records, joined by “and”; a condition that tells them apart may be missing. Equal entries are not always repeated. Inconclusive results and toxic doses are left out. No stated cut-off is given here; in the data, active means T/C of 150% or more; inactive means T/C below 125%.

Tested on: L1210 leukemia ip in BDF1 mice, survival T/C
Experiment: NCI In Vivo Anticancer Drug Screen. Data for tumor model L1210 Leukemia (intraperitoneal) in B6D2F1 (BDF1) mice
Details: endpoint: mean survival time, higher = longer survival
In short: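 Antitumor effect is assessed in tumor-bearing animals. Survival in the compound arm is compared with a vehicle-dosed control arm and expressed as their quotient.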

[1] = dose: 100.0 mg/kg/injection, schedule: Q04DX003 (ip), vehicle: saline
[2] = dose: 200.0 mg/kg/injection, schedule: Q04DX003 (ip), vehicle: saline
[3] = dose: 400.0 mg/kg/injection, schedule: Q04DX003 (ip), vehicle: saline
[4] = dose: 100.0 mg/kg/injection, schedule: Q01DX001 (ip), vehicle: saline

Measured: T/C

CCOC(=O)c1ncn(-c2ccccc2)c1C(=O)OCC
inactive: dose: 100.0 mg/kg/injection, schedule: Q04DX002 (ip), vehicle: carboxymethylcellulose (CMC) 100 % of control | dose: 100.0 mg/kg/injection, schedule: Q04DX003 (ip), vehicle: carboxymethylcellulose (CMC) 96 % of control and 100 % of control | dose: 200.0 mg/kg/injection, schedule: Q04DX002 (ip), vehicle: carboxymethylcellulose (CMC) 97 % of control and 104 % of control | dose: 200.0 mg/kg/injection, schedule: Q04DX003 (ip), vehicle: carboxymethylcellulose (CMC) 96 % of control and 101 % of control | dose: 400.0 mg/kg/injection, schedule: Q04DX002 (ip), vehicle: carboxymethylcellulose (CMC) 94 % of control and 86 % of control | dose: 400.0 mg/kg/injection, schedule: Q04DX003 (ip), vehicle: carboxymethylcellulose (CMC) 94 % of control and 92 % of control

O=C(O)c1nccc2c(O)cccc12
inactive: [1] 93 % of control | [2] 102 % of control | [3] 101 % of control

CCN(CC#N)c1ccc(Nc2cc(Cl)ccc2Cl)cc1
inactive: dose: 75.0 mg/kg/injection, schedule: Q01DX001 (ip), vehicle: other 107 % of control | dose: 150.0 mg/kg/injection, schedule: Q01DX001 (ip), vehicle: other 96 % of control | dose: 300.0 mg/kg/injection, schedule: Q01DX001 (ip), vehicle: other 100 % of control

CCOC(Nc1ccc([N+](=O)[O-])cc1)C(=O)c1ccccc1 (centres undefined)
inactive: [4] 93 % of control | dose: 200.0 mg/kg/injection, schedule: Q01DX001 (ip), vehicle: saline 97 % of control | dose: 400.0 mg/kg/injection, schedule: Q01DX001 (ip), vehicle: saline 100 % of control

CNCc1ccccc1Cc1ccccc1
inactive: dose: 75.0 mg/kg/injection, schedule: Q01DX001 (ip), vehicle: saline 100 % of control | dose: 150.0 mg/kg/injection, schedule: Q01DX001 (ip), vehicle: saline 97 % of control | dose: 300.0 mg/kg/injection, schedule: Q01DX001 (ip), vehicle: saline 95 % of control

O=S(=O)(NCCCl)c1cc(Cl)c(Cl)cc1Cl
inactive: dose: 100.0 mg/kg/injection, schedule: Q01DX001 (ip), vehicle: carboxymethylcellulose (CMC) 97 % of control | dose: 200.0 mg/kg/injection, schedule: Q01DX001 (ip), vehicle: carboxymethylcellulose (CMC) 94 % of control | dose: 400.0 mg/kg/injection, schedule: Q01DX001 (ip), vehicle: carboxymethylcellulose (CMC) 94 % of control

Cn1cnccc1=O
inactive: dose: 50.0 mg/kg/injection, schedule: Q01DX009 (ip), vehicle: water 102 % of control | dose: 100.0 mg/kg/injection, schedule: Q01DX009 (ip), vehicle: water 104 % of control | dose: 100.0 mg/kg/injection, schedule: Q04DX003 (ip), vehicle: water 114 % of control | dose: 120.0 mg/kg/injection, schedule: Q04DX003 (ip), vehicle: water 98 % of control | dose: 200.0 mg/kg/injection, schedule: Q01DX009 (ip), vehicle: water 115 % of control | dose: 200.0 mg/kg/injection, schedule: Q04DX003 (ip), vehicle: water 100 % of control and 111 % of control | dose: 333.0 mg/kg/injection, schedule: Q04DX003 (ip), vehicle: water 95 % of control | dose: 400.0 mg/kg/injection, schedule: Q01DX009 (ip), vehicle: water 115 % of control | dose: 400.0 mg/kg/injection, schedule: Q04DX003 (ip), vehicle: water 106 % of control

C[CH2][Hg][S]c1nsc([S][Hg][CH2]C)n1
inactive: dose: 1.56 mg/kg/injection, schedule: Q01DX009 (ip), vehicle: Klucel (hydroxypropylcellulose) (HPC) 110 % of control | dose: 3.12 mg/kg/injection, schedule: Q01DX009 (ip), vehicle: Klucel (hydroxypropylcellulose) (HPC) 119 % of control | dose: 6.25 mg/kg/injection, schedule: Q01DX009 (ip), vehicle: Klucel (hydroxypropylcellulose) (HPC) 121 % of control | dose: 12.5 mg/kg/injection, schedule: Q01DX009 (ip), vehicle: Klucel (hydroxypropylcellulose) (HPC) 117 % of control | dose: 25.0 mg/kg/injection, schedule: Q01DX009 (ip), vehicle: Klucel (hydroxypropylcellulose) (HPC) 100 % of control

O=C(O)CCCNCc1cc(=O)[nH]c(=O)[nH]1
inactive: [1] 101 % of control

Clc1ccc(C(c2ccccc2Cl)C(Cl)Cl)cc1 (centres undefined)
inactive: dose: 62.5 mg/kg/injection, schedule: Q01DX009 (sc), vehicle: steriod suspending solution 98 % of control and 101 % of control | dose: 62.5 mg/kg/injection, schedule: Q01DX010 (sc), vehicle: saline 91 % of control | dose: 62.5 mg/kg/injection, schedule: Q01DX010 (sc), vehicle: steriod suspending solution 102 % of control | dose: 125.0 mg/kg/injection, schedule: Q01DX009 (sc), vehicle: steriod suspending solution 98 % of control and 103 % of control | dose: 125.0 mg/kg/injection, schedule: Q01DX010 (sc), vehicle: saline 102 % of control | dose: 125.0 mg/kg/injection, schedule: Q01DX010 (sc), vehicle: steriod suspending solution 98 % of control | dose: 250.0 mg/kg/injection, schedule: Q01DX009 (sc), vehicle: steriod suspending solution 97 % of control and 100 % of control | dose: 250.0 mg/kg/injection, schedule: Q01DX010 (sc), vehicle: saline 91 % of control | dose: 250.0 mg/kg/injection, schedule: Q01DX010 (sc), vehicle: steriod suspending solution 102 % of control | dose: 500.0 mg/kg/injection, schedule: Q01DX009 (sc), vehicle: steriod suspending solution 97 % of control and 101 % of control | dose: 500.0 mg/kg/injection, schedule: Q01DX010 (sc), vehicle: saline 94 % of control | dose: 500.0 mg/kg/injection, schedule: Q01DX010 (sc), vehicle: steriod suspending solution 98 % of control

CCN(CC)CCN1C(=O)c2ccc3c4c(ccc(c24)C1=O)C(=O)N(CCN(CC)CC)C3=O
inactive: dose: 6.25 mg/kg/injection, schedule: Q01DX001 (ip), vehicle: saline 105 % of control | dose: 12.5 mg/kg/injection, schedule: Q01DX001 (ip), vehicle: saline 98 % of control

CCc1nnnn1C12CC3CC(CC(C3)C1)C2
inactive: [1] 102 % of control

O=C(O)c1ccc(OCc2ccccc2)c(Br)c1
inactive: dose: 100.0 mg/kg/injection, schedule: Q01DX001 (ip), vehicle: saline with Tween-80 97 % of control | dose: 200.0 mg/kg/injection, schedule: Q01DX001 (ip), vehicle: saline with Tween-80 104 % of control | dose: 400.0 mg/kg/injection, schedule: Q01DX001 (ip), vehicle: saline with Tween-80 98 % of control

CCN(c1c(C)cc(C)c(N(CC(=O)O)S(=O)(=O)c2ccccc2)c1C)S(=O)(=O)c1ccccc1
inactive: dose: 100.0 mg/kg/injection, schedule: Q01DX009 (ip), vehicle: saline with Tween-80 101 % of control | [1] 94 % of control | dose: 200.0 mg/kg/injection, schedule: Q01DX009 (ip), vehicle: saline with Tween-80 97 % of control | [2] 100 % of control | dose: 400.0 mg/kg/injection, schedule: Q01DX009 (ip), vehicle: saline with Tween-80 95 % of control | [3] 103 % of control

Cc1ccc(C(C)(C#N)Nc2ccccc2)cc1 (centres undefined)
inactive: dose: 100.0 mg/kg/injection, schedule: Q01DX001 (ip), vehicle: Klucel (hydroxypropylcellulose) (HPC) 88 % of control | dose: 100.0 mg/kg/injection, schedule: Q04DX003 (ip), vehicle: Klucel (hydroxypropylcellulose) (HPC) 105 % of control | dose: 200.0 mg/kg/injection, schedule: Q01DX001 (ip), vehicle: Klucel (hydroxypropylcellulose) (HPC) 91 % of control | dose: 200.0 mg/kg/injection, schedule: Q04DX003 (ip), vehicle: Klucel (hydroxypropylcellulose) (HPC) 95 % of control | dose: 400.0 mg/kg/injection, schedule: Q01DX001 (ip), vehicle: Klucel (hydroxypropylcellulose) (HPC) 92 % of control | dose: 400.0 mg/kg/injection, schedule: Q04DX003 (ip), vehicle: Klucel (hydroxypropylcellulose) (HPC) 105 % of control

Nc1ccc(-c2ccc(-n3cccc3)cc2)cc1
inactive: dose: 25.0 mg/kg/injection, schedule: Q01DX001 (ip), vehicle: saline 100 % of control | dose: 50.0 mg/kg/injection, schedule: Q01DX001 (ip), vehicle: saline 96 % of control | [4] 109 % of control
